Source: US20240158446A1, “CYCLIC COMPOUND HAVING SELECTIVE INHIBITORY ACTION ON KRAS OVER HRAS AND NRAS” (CHUGAI SEIYAKU KABUSHIKI KAISHA, priority 2021, published 2024)
Read-outs that look alike come from different tables or passages of the source. *1 amine or outer side, *2 acyl side, *3 side chain or, on linkers, in order; H or OH if unused. Where a SMILES comes first, the peptide text is derived from it. Bridges are numbered along the chain shown (N, C = ends). [ ]: non-standard residue; d: D form. The star is where a group is joined. hPhe(3-Cl-4-CF3) = N[C@@H](CCc1ccc(C(F)(F)F)c(Cl)c1)C(=O)O; NPrPhe(4-CF3) = CCCN[C@@H](Cc1ccc(C(F)(F)F)cc1)C(=O)O; X30 = C=CCCN([C@@H](Cc1ccc(C)cc1)C(=O)[*:2])[*:1]; NMePhe(4-F) = CN[C@@H](Cc1ccc(F)cc1)C(=O)O; NMeGly(cPent) = CN[C@H](C(=O)O)C1CCCC1; Pro(4,4-F2) = O=C(O)[C@@H]1CC(F)(F)CN1; NMeAllylGly = C=CC[C@H](NC)C(=O)O; NMeD = CN[C@@H](CC(=O)O)C(=O)O; NMeL = CN[C@@H](CC(C)C)C(=O)O; Morpholide = C1CN(*)CCO1; NMeA = CN[C@@H](C)C(=O)O; Ac5c = NC1(C(=O)O)CCCC1; Aze = O=C(O)[C@@H]1CCN1; Ac4c = NC1(C(=O)O)CCC1; Sar = CNCC(=O)O

Assays:
[1] = target: GDP-bound KRAS wild-type protein (Homo sapiens, UniProt P01116); assay: Binding to KRAS by surface plasmon resonance (SPR), Single Cycle Kinetics; settings: GDP-bound KRAS wild-type protein, read-out: KRAS KD
[2] = target: GDP-bound HRAS wild-type protein (Homo sapiens, UniProt P01112); assay: Binding to HRAS by surface plasmon resonance (SPR), Single Cycle Kinetics; settings: for HRAS/KRAS (ratio of KD value for HRAS to KD value for KRAS): SPR, GDP-bound HRAS wild-type protein vs GDP-bound KRAS wild-type protein; for HRAS/KRAS (ratio of KD value with respect to GDP-bound HRAS wild-type protein to KD value with respect to KRAS): SPR KD ratio HRAS/KRAS, class symbols
[3] = target: GDP-bound NRAS wild-type protein (Homo sapiens, UniProt P01111); assay: Binding to NRAS by surface plasmon resonance (SPR), Single Cycle Kinetics; settings: for NRAS/KRAS (ratio of KD value for NRAS to KD value for KRAS): SPR, GDP-bound NRAS wild-type protein vs GDP-bound KRAS wild-type protein; for NRAS/KRAS (ratio of KD value with respect to GDP-bound NRAS wild-type protein to KD value with respect to KRAS): SPR KD ratio NRAS/KRAS, class symbols
[4] = SPR Single Cycle Kinetics, 1:1 binding model

GDP-bound KRAS wild-type protein, sequence (P01116 whole entry): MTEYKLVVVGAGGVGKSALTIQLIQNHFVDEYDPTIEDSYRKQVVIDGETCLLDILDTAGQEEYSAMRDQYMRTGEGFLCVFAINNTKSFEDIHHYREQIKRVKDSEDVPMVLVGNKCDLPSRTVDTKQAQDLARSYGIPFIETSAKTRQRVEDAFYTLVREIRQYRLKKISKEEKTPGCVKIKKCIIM
GDP-bound HRAS wild-type protein, sequence (P01112 whole entry): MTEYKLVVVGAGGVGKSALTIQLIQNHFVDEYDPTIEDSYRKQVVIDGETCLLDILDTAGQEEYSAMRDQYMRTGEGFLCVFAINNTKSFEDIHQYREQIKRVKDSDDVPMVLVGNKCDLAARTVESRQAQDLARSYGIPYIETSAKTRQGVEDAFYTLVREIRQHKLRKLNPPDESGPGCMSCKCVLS
GDP-bound NRAS wild-type protein, sequence (P01111 whole entry): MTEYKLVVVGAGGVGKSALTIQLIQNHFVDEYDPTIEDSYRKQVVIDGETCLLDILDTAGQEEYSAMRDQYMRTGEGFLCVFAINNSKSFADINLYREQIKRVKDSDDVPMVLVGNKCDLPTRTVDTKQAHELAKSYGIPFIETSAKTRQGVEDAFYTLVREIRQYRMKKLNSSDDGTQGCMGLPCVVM

Structure (SMILES) | Kd [1, 4] | Kd ([1]; SPR, Single Cycle Kinetics) | HRAS/KRAS (ratio of KD value for HRAS to KD value for KRAS) [2] | NRAS/KRAS (ratio of KD value for NRAS to KD value for KRAS) [3] | HRAS/KRAS (ratio of KD value with respect to GDP-bound HRAS wild-type protein to KD value with respect to KRAS) [2] | NRAS/KRAS (ratio of KD value with respect to GDP-bound NRAS wild-type protein to KD value with respect to KRAS) [3] | also measured
CCCN1C(=O)[C@@H]2CCN2C(=O)[C@H](C)N(C)C(=O)[C@H]([C@@H](C)CC)NC(=O)[C@H](CC(C)C)NC(=O)C[C@@H](C(=O)N2CCOCC2)N(C)C(=O)[C@H](C2CCCC2)N(C)C(=O)C2(CCCC2)NC(=O)[C@@H]2CCCN2C(=O)[C@H](CCc2ccc(C(F)(F)F)c(Cl)c2)NC(=O)CN(C)C(=O)[C@@H]1Cc1ccc(C(F)(F)F)cc1 [PP0154] (LI[NMeA][Aze][NPrPhe(4-CF3)][Sar][hPhe(3-Cl-4-CF3)]P[Ac5c][NMeGly(cPent)][NMeD]-Morpholide; lactam N-11) | 0.23 nM |  | B (a compound having 3 or more and less than 10 is denoted as B) | C (A compound having a KD ratio of 0.1 or more and less than 3 is denoted as C) |  |  | 
C=CCCN1C(=O)[C@H](CC=C)N(C)C(=O)CN(C)C(=O)[C@H]([C@@H](C)CC)NC(=O)[C@H](CC(C)C)N(C)C(=O)C[C@@H](C(=O)N2CCOCC2)N(C)C(=O)[C@H](C2CCCC2)N(C)C(=O)C2(CCCC2)NC(=O)[C@@H]2CCCN2C(=O)[C@H](CCc2ccc(C(F)(F)F)c(Cl)c2)NC(=O)CN(C)C(=O)[C@@H]1Cc1ccc(C)cc1 [PP0140] ([NMeL]I[Sar][NMeAllylGly][X30][Sar][hPhe(3-Cl-4-CF3)]P[Ac5c][NMeGly(cPent)][NMeD]-Morpholide; lactam N-11) | 800 nM |  | B (a compound having 3 or more and less than 10 is denoted as B) | C (A compound having a KD ratio of 0.1 or more and less than 3 is denoted as C) |  |  | 
CCCN1C(=O)CN(C)C(=O)CN(C)C(=O)[C@H]([C@@H](C)CC)NC(=O)[C@H](CC(C)C)N(C)C(=O)C[C@@H](C(=O)N2CCOCC2)NC(=O)[C@H](C2CCCC2)N(C)C(=O)C2(CCC2)NC(=O)[C@@H]2CC(F)(F)CN2C(=O)[C@H](CCc2ccc(C(F)(F)F)c(Cl)c2)NC(=O)CN(C)C(=O)[C@@H]1Cc1ccc(C(F)(F)F)cc1 [PP0322] ([NMeL]I[Sar][Sar][NPrPhe(4-CF3)][Sar][hPhe(3-Cl-4-CF3)][Pro(4,4-F2)][Ac4c][NMeGly(cPent)]D-Morpholide; lactam N-11) | 0.84 nM |  | C (A compound having a KD ratio of 0.1 or more and less than 3 is denoted as C) | B (a compound having 3 or more and less than 10 is denoted as B) |  |  | 
CC[C@H](C)[C@@H]1NC(=O)[C@H](CC(C)C)N(C)C(=O)C[C@@H](C(=O)N2CCOCC2)N(C)C(=O)[C@H](C2CCCC2)N(C)C(=O)C2(CCC2)NC(=O)[C@@H]2CCCN2C(=O)[C@H](CCc2ccc(C(F)(F)F)c(Cl)c2)NC(=O)CN(C)C(=O)[C@H](Cc2ccc(F)cc2)N2CCCCC[C@@H](C2=O)N(C)C(=O)CN(C)C1=O [PP0967] |  | 0.33 nM | B (a compound having 3 or more and less than 10 is denoted as B) | B (a compound having 3 or more and less than 10 is denoted as B) |  |  | 
CCO[C@@H]1C[C@H]2C(=O)NC3(CC(C)(C)C3)C(=O)N(C)[C@@H](C3CCCC3)C(=O)N(C)[C@H](C(=O)N3CCCCC3)CC(=O)N(C)[C@H]3CC/C=C/c4ccc(cc4)C[C@@H](C(=O)N(C)CC(=O)N[C@@H](CCc4ccc(Cl)c(Cl)c4)C(=O)N2C1)N1CC/C=C\C[C@@H](C1=O)N(C)C(=O)CN(C)C(=O)[C@H]([C@@H](C)CC)NC3=O [PP2597] | 0.51 nM |  |  |  | A (a compound having 10 or more and less than 20 is denoted as A) | A (a compound having 10 or more and less than 20 is denoted as A) | 
CCCN(C)C(=O)[C@@H]1CC(=O)N(C)[C@@H](CC(C)C)C(=O)N[C@@H]([C@@H](C)CC)C(=O)N(C)CC(=O)N(C)[C@H]2C/C=C\CCN(C2=O)[C@@H](Cc2ccc(C(F)(F)F)cc2)C(=O)N(C)CC(=O)N[C@@H](CCc2cc(F)c(C(F)(F)F)c(F)c2)C(=O)N2C[C@H](OCC)C[C@H]2C(=O)NC2(CCC2)C(=O)N(C)[C@@H](C2CCCC2)C(=O)N1C [PP1387, (2S,8S,12R,14S,20S,23S,27S,30S,36S,38Z)-20-cyclopentyl-8-[2-[3,5-difluoro-4-(trifluoromethyl)phenyl]ethyl]-12-ethoxy-27-isobutyl-N,4,19,22,26,32,35-heptamethyl-30-[(1S)-1-methylpropyl]-3,6,9,15,18,21,25,28,31,34,42-undecaoxo-N-propyl-2-[[4-(trifluoromethyl)phenyl]methyl]spiro[1,4,7,10,16,19,22,26,29,32,35-undecazatricyclo[34.5.1.0^10,14]dotetracont-38-ene-17,1′-cyclobutane]-23-carboxamide] |  |  |  |  |  |  | Kd ([1]; SPR, Single Cycle Kinetics, 1:1 binding model): 0.098 nM; HRAS/KRAS (ratio of KD value for HRAS to KD value for KRAS) ([2]; KD ratio class): B (a compound having 3 or more and less than 10 is denoted as B); NRAS/KRAS (ratio of KD value for NRAS to KD value for KRAS) ([3]; KD ratio class): A (a compound having 10 or more and less than 20 is denoted as A)
CC[C@H](C)[C@@H]1NC(=O)[C@H](CC(C)C)N(C)C(=O)C[C@@H](C(=O)N2CCOCC2)N(C)C(=O)[C@H](C2CCCC2)N(C)C(=O)C2(CCCC2)NC(=O)[C@@H]2CCCN2C(=O)[C@H](CCc2ccc(C(F)(F)F)c(Cl)c2)NC(=O)CN(C)C(=O)[C@H](Cc2ccc(F)cc2)N(C)C(=O)[C@@H]2CCN2C(=O)[C@H](C)N(C)C1=O [PP0217] ([NMeL]I[NMeA][Aze][NMePhe(4-F)][Sar][hPhe(3-Cl-4-CF3)]P[Ac5c][NMeGly(cPent)][NMeD]-Morpholide; lactam N-11) | 0.18 nM |  | C (A compound having a KD ratio of 0.1 or more and less than 3 is denoted as C) | C (A compound having a KD ratio of 0.1 or more and less than 3 is denoted as C) |  |  | 

Second part, led by results:

Kd [1, 4] | Kd ([1]; SPR, Single Cycle Kinetics) | Structure (SMILES) | HRAS/KRAS (ratio of KD value for HRAS to KD value for KRAS) [2] | NRAS/KRAS (ratio of KD value for NRAS to KD value for KRAS) [3] | HRAS/KRAS (ratio of KD value with respect to GDP-bound HRAS wild-type protein to KD value with respect to KRAS) [2] | NRAS/KRAS (ratio of KD value with respect to GDP-bound NRAS wild-type protein to KD value with respect to KRAS) [3] | also measured
4.8 nM |  | CCC[C@H]1C(=O)N[C@@H]([C@@H](C)CC)C(=O)N(C)CC(=O)N(C)[C@H]2C/C=C\CCN(C2=O)[C@@H](Cc2ccc(C(F)(F)F)cc2)C(=O)N(C)CC(=O)N[C@@H](CCc2ccc(C(F)(F)F)c(Cl)c2)C(=O)N2CCCC[C@H]2C(=O)NC2(CC(C)(C)C2)C(=O)N(C)[C@@H](C(CC)CC)C(=O)N(C)[C@H](C(=O)N(C)C)CC(=O)N1C [PP2928] |  |  | A (a compound having 10 or more and less than 20 is denoted as A) | AA (a compound having 20 or more is denoted as AA) | 
1.5 nM |  | CCC[C@H]1C(=O)N[C@@H]([C@@H](C)CC)C(=O)N(C)CC(=O)N(C)[C@H]2C/C=C\CCN(C2=O)[C@@H](Cc2ccc(C(F)(F)F)cc2)C(=O)N(C)CC(=O)N[C@@H](CCc2ccc3c(C)cn(C)c3c2)C(=O)N2C[C@H](OCC)C[C@H]2C(=O)NC2(CC(C)(C)C2)C(=O)N(C)[C@@H](C(CC)CC)C(=O)N(C)[C@H](C(=O)N(C)C)CC(=O)N1C [PP2908] |  |  | A (a compound having 10 or more and less than 20 is denoted as A) | AA (a compound having 20 or more is denoted as AA) | 
 | 0.4 nM | CCC[C@H]1C(=O)N[C@@H]([C@@H](C)CC)C(=O)N2CCC[C@H]2C(=O)N(C)[C@H]2C/C=C\CCN(C2=O)[C@@H](Cc2ccc(C(F)(F)F)cc2)C(=O)N(C)CC(=O)N[C@@H](CCc2ccc(C(F)(F)F)c(OC)c2)C(=O)N2C[C@H](OCC)C[C@H]2C(=O)N(C)C2(CCC2)C(=O)N(C)[C@@H](C(CC)CC)C(=O)N(C)[C@H](C(=O)N(C)C)CC(=O)N1C [PP2317] | A (a compound having 10 or more and less than 20 is denoted as A) | A (a compound having 10 or more and less than 20 is denoted as A) |  |  | 
0.3 nM |  | CCC[C@H]1C(=O)N[C@@H]([C@@H](C)CC)C(=O)N(C)CC(=O)N(C)[C@H]2C/C=C\CCN(C2=O)[C@@H](Cc2ccc(C(F)(F)F)cc2)C(=O)N(C)CC(=O)N[C@@H](CCc2cc(F)c(C(F)F)c(F)c2)C(=O)N2C[C@H](OCC)C[C@H]2C(=O)NC2(CC(C)(C)C2)C(=O)N(C)[C@@H](C2CCCC2)C(=O)N(C)[C@H](C(=O)N(C)C)CC(=O)N1C [PP2780] |  |  | A (a compound having 10 or more and less than 20 is denoted as A) | A (a compound having 10 or more and less than 20 is denoted as A) | 
 | 0.024 nM | CCO[C@@H]1C[C@H]2C(=O)NC3(CCC3)C(=O)N(C)[C@@H](C3CCCC3)C(=O)N(C)[C@H](C(=O)N(C)C)CC(=O)N(C)[C@@H](CC)C(=O)N[C@@H]([C@@H](C)CC)C(=O)N(C)CC(=O)N(C)[C@H]3CCCCN(C3=O)[C@@H](Cc3ccc(C(F)(F)F)cc3)C(=O)N(C)CC(=O)N[C@@H](CCc3ccc(Cl)c(Cl)c3)C(=O)N2C1 [PP0987] | C (A compound having a KD ratio of 0.1 or more and less than 3 is denoted as C) | C (A compound having a KD ratio of 0.1 or more and less than 3 is denoted as C) |  |  | 
 | 3.7 nM | CCCCO[C@@H]1C[C@H]2C(=O)NC3(CCC3)C(=O)N(C)[C@@H](C3CCCC3)C(=O)N(C)[C@H](C(=O)N3CCOCC3)CC(=O)N(C)[C@@H](CC(C)C)C(=O)N[C@@H]([C@@H](C)CC)C(=O)N(C)CC(=O)N(C)[C@H]3CCCCCN(C3=O)[C@@H](Cc3ccc(C(F)(F)F)cc3)C(=O)N(C)CC(=O)N[C@@H](CCc3cc(F)c(C(F)(F)F)c(F)c3)C(=O)N2C1 [PP1004] | B (a compound having 3 or more and less than 10 is denoted as B) | B (a compound having 3 or more and less than 10 is denoted as B) |  |  | 
